What all share (experiment): inhibition of tumour cell growth, NCI panel, 48 h
The test system of assay [1] is CCRF-CEM leukemia.
Assay [2] deals with COLO 205 colon.
Assay [3] deals with EKVX NSCLC.
Assay [4] relates to HL-60(TB) leukemia.
The test system of assay [5] is HOP-62 NSCLC.
For assay [6], the system named is HOP-92 NSCLC.
For assay [7], the system named is HS 578T breast.
In assay [8] the test system is KM12 colon.
Assay [9] concerns MALME-3M melanoma.
Assay [10] concerns NCI/ADR-RES ovarian.
For assay [11], the system named is OVCAR-5 ovarian.
Assay [12] deals with SF-539 CNS.
Assay [13] has as its system SK-MEL-28 melanoma.
Assay [14] has as its system SK-OV-3 ovarian.
The test system of assay [15] is SN12C renal.
Assay [16] has as its system UACC-257 melanoma.
Assay [17] has as its system UACC-62 melanoma.

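Method: 48-hour compound exposure of cells in 96-well plates, five concentrations, linear interpolation of endpoints. TGI: total growth inhibition.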 Where a SMILES comes first, the peptide text is derived from it. [ ]: non-standard residue; d: D form. The star is where a group is joined. ξ: configuration not given here. Propanoyl(3-(4-MeO-Ph)) = COc1ccc(CCC(=O)*)cc1; Thr(3ξ) = CC(O)[C@H](N)C(=O)O; dNMeL = CN[C@H](CC(C)C)C(=O)O; Boc = CC(C)(C)OC(=O)*; OBn = c1ccc(CO*)cc1; ξLac = CC(O)C(=O)O A value given as a limit tells only on which side of the number the result lay.

For `CC(C)CC1[C@@H](OCc2ccccc2)COS(=O)(=O)N1Cc1ccccc1` (stereo partly drawn), the TGI in assay [1], in [2], in [3], in assay [4], in [5] and in assay [6] was above 100 µM each time. Further, the TGI was 70 µM in assay [7]; above 100 µM in [8]; above 100 µM in assay [9]; above 100 µM in [10]; above 100 µM in [11]; above 100 µM in assay [12]. The TGI in assay [13], in [14], in assay [15], in assay [16] and in assay [17] was above 100 µM each time.
As for `NCCCc1c(-c2ccccc2)nc(N)[nH]c1=O`, the TGI in assay [1], in [2], in [3], in assay [4], in assay [5] and in assay [6] was above 100 µM throughout. Moreover, the TGI in [7], in assay [8], in assay [9], in [10], in assay [11] and in assay [12] was above 100 µM each time. Moreover, the TGI in assay [13], in assay [14], in [15], in assay [16] and in assay [17] was above 100 µM each time.
For the compound `COc1cc(C2SCC(=O)N2c2ccc(Cl)cc2)cc(I)c1O` (stereo not drawn), the TGI in assay [1] is above 100 µM; in assay [2], above 23.7 µM; in [3], above 100 µM; in assay [4] it was above 100 µM; in [5] it was above 100 µM; in assay [6], above 100 µM. Moreover, the TGI in assay [7], in [8], in assay [9], in [10], in assay [11] and in assay [12] was above 100 µM in each case. The TGI in assay [13] is above 100 µM; in assay [14], above 100 µM; in [15] it was above 100 µM; in [16], above 100 µM; in assay [17], above 28.5 µM.
Regarding `O=c1[nH]c2ccc(CC(=S)N3CCN(c4ccccc4)CC3)cc2o1`, the TGI in assay [1], in assay [2], in assay [3], in assay [4], in assay [5] and in assay [6] was above 100 µM each time. For the same compound, the TGI in assay [7], in [8], in assay [9], in assay [10], in assay [11] and in assay [12] was above 100 µM each time. Moreover, the TGI in [13], in [14], in [15], in assay [16] and in assay [17] was above 100 µM each time.
On to `Cc1ccc(O)c(-c2csc(NCN3CCN(CNc4nc(-c5cc(C)ccc5O)cs4)CC3)n2)c1`, for which the TGI in assay [1], in assay [2], in assay [3], in assay [4], in assay [5] and in assay [6] was above 100 µM throughout. The TGI in [7], in assay [8], in assay [9], in [10], in [11] and in assay [12] was above 100 µM each time. In addition, the TGI in [13], in assay [14], in assay [15], in assay [16] and in assay [17] was above 100 µM each time.
On to `COc1ccc(CCC(=O)OC(C)[C@H](NC(=O)[C@@H](CC(C)C)N(C)C(=O)[C@@H]2CCCN2C(=O)C(C)O)C(=O)OCc2ccccc2)cc1` (stereo partly drawn) (H-[ξLac]P[dNMeL][Thr(3ξ)](Propanoyl(3-(4-MeO-Ph)))-OBn), for which the TGI in [1] is 68.9 µM; in assay [2], 39 µM; in assay [3], above 100 µM; in [4] it was 72.6 µM; in assay [5] it was above 100 µM; in assay [6] it was 41.6 µM. In addition, the TGI in assay [7] was 27.8 µM; in assay [8], 79.4 µM; in assay [9], 45.4 µM; in [10], above 100 µM; in assay [11], above 100 µM; in [12], 46.2 µM. The TGI in [13] was 32.9 µM; in assay [14] it was above 100 µM; in assay [15], above 100 µM; in [16], 35.6 µM; in [17], 37.9 µM.
Turning to `O=C(/C=C/c1cccs1)c1cccc(C(=O)/C=C/c2cccs2)n1`, the TGI in [1] was 8.51 µM; in assay [2] it was above 100 µM; in assay [3], above 100 µM; in [4], 43 µM; in assay [5], above 100 µM; in [6], above 100 µM. Besides, the TGI in assay [7] was above 94.8 µM; in assay [8] it was above 66.3 µM; in assay [9], above 100 µM; in [10], above 100 µM; in assay [11], above 100 µM; in [12] it was 21.5 µM. The TGI was above 100 µM in [13]; above 100 µM in [14]; above 58.8 µM in [15]; above 100 µM in assay [16]; above 100 µM in assay [17].
Consider `COc1cc(C(=O)Nc2c3ccccc3nc3ccccc23)cc(OC)c1OC`, for which the TGI in assay [1] is above 100 µM; in [2], above 100 µM; in assay [3] it was above 100 µM; in assay [4], 5.58 µM; in assay [5], above 80.1 µM; in assay [6], above 100 µM. For the same compound, the TGI in [7], in assay [8], in assay [9], in [10], in [11] and in assay [12] was above 100 µM in each case. Further, the TGI in assay [13], in assay [14], in assay [15], in assay [16] and in [17] was above 100 µM throughout.
With `COC(OC)(c1ccccc1)C(I)I`, the TGI was 22.7 µM in assay [1]; 24.2 µM in [2]; 16.9 µM in assay [3]; 20.4 µM in assay [4]; above 58.3 µM in assay [5]; 26.7 µM in [6]. Moreover, the TGI in assay [7] is 62.4 µM; in [8], 40.1 µM; in [9], 13.3 µM; in assay [10] it was above 59.7 µM; in [11], 33.1 µM; in assay [12], 17.6 µM. For the same compound, the TGI in [13] stood at 30.7 µM; in assay [14], 16.7 µM; in [15] it was 50.4 µM; in assay [16] it was 8.73 µM; in [17], 26.6 µM.
`CCOCC(NC(=O)C(CC(C)C)NC(=O)OC(C)(C)C)C(N)=O` (stereo not drawn) (Boc-Leu-Ser(Et)-NH2; configuration not given here): the TGI in [1], in [2], in assay [3], in [4], in [5] and in assay [6] was above 100 µM throughout. Moreover, the TGI in assay [7], in assay [8], in [9], in assay [10], in assay [11] and in assay [12] was above 100 µM in each case. For the same compound, the TGI was 2.84 µM in assay [13]; above 100 µM in [14]; above 100 µM in assay [15]; above 100 µM in assay [16]; above 100 µM in assay [17].
In the case of `COc1ccc(C(C#N)NCCCCCCNC(C#N)c2ccc(OC)cc2)cc1` (stereo not drawn), the TGI in assay [1], in assay [2], in assay [3], in assay [4], in [5] and in assay [6] was above 100 µM in each case. Also, the TGI in assay [7], in assay [8], in assay [9], in [10], in assay [11] and in assay [12] was above 100 µM in each case. The TGI in assay [13], in [14], in assay [15], in assay [16] and in [17] was above 100 µM in each case.
Regarding `CC(C)NC(=O)OCc1c(COC(=O)NC(C)C)c(-c2ccc[n+](COC(=O)C3CC3)c2)n2c1CCC2`, the TGI in [1], in assay [2], in assay [3], in assay [4], in [5] and in assay [6] was above 100 µM throughout. Besides, the TGI in assay [7], in assay [8], in assay [9], in [10], in assay [11] and in assay [12] was above 100 µM each time. Besides, the TGI in [13], in [14], in assay [15], in [16] and in assay [17] was above 100 µM each time.
Consider `CCOC(=O)C(C)(C)/C=C\C(Cl)=C(Cl)Cl`, for which the TGI in assay [1], in assay [2], in assay [3], in assay [4], in assay [5] and in [6] was above 100 µM in each case. In addition, the TGI in assay [7], in assay [8], in assay [9], in [10], in assay [11] and in assay [12] was above 100 µM throughout. The TGI in [13], in assay [14], in assay [15], in assay [16] and in [17] was above 100 µM throughout.
Take `COc1ccc(CCc2ccc(O)c(C(=O)O)c2)cc1OC`: the TGI in [1], in [2], in assay [3], in [4], in [5] and in assay [6] was above 100 µM throughout. The TGI in [7], in assay [8], in [9], in assay [10], in assay [11] and in assay [12] was above 100 µM in each case. Further, the TGI in assay [13], in assay [14], in assay [15], in assay [16] and in assay [17] was above 100 µM throughout.
